Molecular target: T1, ΔF508-CFTR (Homo sapiens, UniProt P13569, DEL508-508)
T1 construct: expressed in transfected cells
Assay: Membrane potential optical assay (FRET/VIPR), identification of correction compounds
Format: cell-based
Conditions: for Emax: relative efficacy
From the text: I) Membrane Potential Optical Methods for Assaying ΔF508-CFTR Modulation Properties of Compounds
The optical membrane potential assay utilized voltage-sensitive FRET sensors described by Gonzalez and Tsien (See, Gonzalez, J. E. and R. Y. Tsien (1995) “Voltage sensing by fluorescence resonance energy transfer in single cells” Biophys J 69(4): 1272-80, and Gonzalez, J. E. and R. Y. Tsien (1997) “Improved indicators of cell membrane potential that use fluorescence resonance energy transfer” Chem Biol 4(4): 269-77) in combination with instrumentation for measuring fluorescence changes such as the Voltage/Ion Probe Reader (VIPR) (See, Gonzalez, J. E., K. Oades, et al. (1999) “Cell-based assays and instrumentation for screening ion-channel targets” Drug Discov Today 4(9): 431-439).
These voltage sensitive assays are based on the change in fluorescence resonant energy transfer (FRET) between the membrane-soluble, voltage-sensitive dye, DiSBAC2(3), and a fluorescent phospholipid, CC2-DMPE, which is attached to the outer leaflet of the plasma membrane and acts as a FRET donor. Changes in membrane potential (Vm) cause the negatively charged DiSBAC2(3) to redistribute across the plasma membrane and the amount of energy transfer from CC2-DMPE changes accordingly. The changes in fluorescence emission were monitored using VIPR™ II, which is an integrated liquid handler and fluorescent detector designed to conduct cell-based screens in 96- or 384-well microtiter plates.
Identification of Correction Compounds
To identify small molecules that correct the trafficking defect associated with ΔF508-CFTR; a single-addition HTS assay format was developed. The cells were incubated in serum-free medium for 16 hrs at 37° C. in the presence or absence (negative control) of test compound. As a positive control, cells plated in 384-well plates were incubated for 16 hrs at 27° C. to “temperature-correct” ΔF508-CFTR. The cells were subsequently rinsed 3× with Krebs Ringers solution and loaded with the voltage-sensitive dyes. To activate ΔF508-CFTR, 10 μM forskolin and the CFTR potentiator, genistein (20 μM), were added along with Cl^−-free medium to each well. The addition of Cl^−-free medium promoted Cl^− efflux in response to ΔF508-CFTR activation and the resulting membrane depolarization was optically monitored using the FRET-based voltage-sensor dyes.
NIH3T3 mouse fibroblasts stably expressing ΔF508-CFTR are used for optical measurements of membrane potential. The cells are maintained at 37° C. in 5% CO2 and 90% humidity in Dulbecco's modified Eagle's medium supplemented with 2 mM glutamine, 10% fetal bovine serum, 1×NEAA, β-ME, 1× pen/strep, and 25 mM HEPES in 175 cm^2 culture flasks. For all optical assays, the cells were seeded at 30,000/well in 384-well matrigel-coated plates and cultured for 2 hrs at 37° C. before culturing at 27° C. for 24 hrs. for the potentiator assay. For the correction assays, the cells are cultured at 27° C. or 37° C. with and without compounds for 16-24 hours B) Electrophysiological Assays for assaying ΔF508-CFTR modulation properties of compounds

T1 sequence (P13569 with tags, fused parts or gaps DEL508-508): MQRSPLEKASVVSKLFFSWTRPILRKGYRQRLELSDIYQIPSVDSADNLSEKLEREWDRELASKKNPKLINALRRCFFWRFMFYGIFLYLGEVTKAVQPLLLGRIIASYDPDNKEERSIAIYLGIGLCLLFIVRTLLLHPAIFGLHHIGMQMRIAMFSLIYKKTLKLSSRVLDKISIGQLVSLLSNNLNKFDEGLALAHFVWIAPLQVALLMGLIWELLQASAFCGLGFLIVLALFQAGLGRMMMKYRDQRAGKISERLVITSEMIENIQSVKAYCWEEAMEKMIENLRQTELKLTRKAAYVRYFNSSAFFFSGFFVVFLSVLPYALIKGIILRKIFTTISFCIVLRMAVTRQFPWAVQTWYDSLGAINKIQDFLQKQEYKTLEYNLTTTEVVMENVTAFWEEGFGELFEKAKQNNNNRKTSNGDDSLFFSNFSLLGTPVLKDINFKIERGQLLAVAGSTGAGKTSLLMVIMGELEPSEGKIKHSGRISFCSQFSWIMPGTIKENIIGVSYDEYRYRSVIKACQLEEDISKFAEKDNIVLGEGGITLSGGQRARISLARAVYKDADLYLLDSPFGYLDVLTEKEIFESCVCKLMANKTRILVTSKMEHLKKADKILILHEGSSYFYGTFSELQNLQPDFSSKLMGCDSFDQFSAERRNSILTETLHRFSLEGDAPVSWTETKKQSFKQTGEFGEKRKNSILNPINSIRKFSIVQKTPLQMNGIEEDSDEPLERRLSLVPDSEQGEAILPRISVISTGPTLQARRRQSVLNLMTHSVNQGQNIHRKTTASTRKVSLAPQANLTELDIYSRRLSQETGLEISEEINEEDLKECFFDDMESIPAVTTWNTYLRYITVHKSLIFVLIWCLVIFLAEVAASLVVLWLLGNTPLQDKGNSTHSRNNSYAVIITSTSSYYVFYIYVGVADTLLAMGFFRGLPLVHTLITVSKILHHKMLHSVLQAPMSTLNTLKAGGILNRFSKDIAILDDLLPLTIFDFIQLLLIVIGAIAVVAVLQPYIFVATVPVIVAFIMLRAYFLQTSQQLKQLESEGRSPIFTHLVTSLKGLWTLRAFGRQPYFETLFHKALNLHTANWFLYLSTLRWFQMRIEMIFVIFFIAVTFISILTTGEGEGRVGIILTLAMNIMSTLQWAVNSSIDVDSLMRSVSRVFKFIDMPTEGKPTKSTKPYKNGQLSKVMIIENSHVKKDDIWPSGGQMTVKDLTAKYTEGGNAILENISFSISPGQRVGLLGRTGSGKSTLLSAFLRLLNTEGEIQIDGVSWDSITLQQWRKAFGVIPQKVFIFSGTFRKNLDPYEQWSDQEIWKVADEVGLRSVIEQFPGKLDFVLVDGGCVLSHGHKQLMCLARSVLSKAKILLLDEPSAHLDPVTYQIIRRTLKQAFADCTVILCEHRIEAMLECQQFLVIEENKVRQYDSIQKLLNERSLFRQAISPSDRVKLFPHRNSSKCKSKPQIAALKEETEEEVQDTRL

SMILES: COCCn1c(C(C)N2CCN(S(=O)(=O)c3ccc(Br)cc3)CC2)nc2ccccc2c1=O (centres unmarked) [compound 5]
- EC50: < 10 µM
- Emax: > 100%

SMILES: COc1ccc(S(=O)(=O)N2CCN(C(C)c3nc(N4CCC[C@@H]4C(=O)O)c4ccccc4n3)CC2)cc1 (some centres unmarked) [compound 324]
- EC50: 25 to 60 µM
- Emax: < 25%

SMILES: CC(c1nc2ccc(-c3nnn[nH]3)cc2c(=O)n1C)N1CCN(S(=O)(=O)c2ccc(Cl)cc2)CC1 (centres unmarked) [compound 154]
- EC50: 25 to 60 µM
- Emax: > 100%

SMILES: Cn1c(CN2CCN(S(=O)(=O)c3ccc(Br)cc3)CC2)nc2ccc(Cl)cc2c1=O [compound 84]
- EC50: 25 to 60 µM
- Emax: < 25%

SMILES: CC(c1nc2ccccc2c(=O)n1C)N1CCN(S(=O)(=O)c2cccs2)CC1 (centres unmarked) [compound 274]
- EC50: 25 to 60 µM
- Emax: < 25%

SMILES: COc1ccc(S(=O)(=O)N2CCN(C(C)c3nc(N4CC=CCC4)c4ccccc4n3)CC2)cc1 (centres unmarked) [compound 392]
- EC50: < 10 µM
- Emax: > 100%

SMILES: CCCn1c(C(C)N2CCN(S(=O)(=O)c3ccccc3)CC2)nc2ccccc2c1=O (centres unmarked) [compound 19]
- EC50: 10 to 25 µM
- Emax: 25 to 100%

SMILES: CC(c1nc2cc(Cl)ccc2c(=O)n1C)N1CCN(S(=O)(=O)c2ccccc2)CC1 (centres unmarked) [compound 91]
- EC50: 10 to 25 µM
- Emax: 25 to 100%

SMILES: CC(c1nc2ccccc2c(=O)n1C)N(C)CCNS(=O)(=O)c1ccc(Cl)cc1 (centres unmarked) [compound 238]
- EC50: 25 to 60 µM
- Emax: < 25%

SMILES: CC(c1nc2ccccc2c(=O)n1C)N1CCC(N)C1 (centres unmarked) [compound 178]
- EC50: 25 to 60 µM
- Emax: < 25%

SMILES: CC(c1nc2ccccc2c(=O)n1C)N1CCN(S(C)(=O)=O)CC1 (centres unmarked) [compound 79]
- EC50: 25 to 60 µM
- Emax: < 25%

SMILES: CCCn1c(CN2CCN(S(=O)(=O)c3ccc(Cl)cc3)CC2)nc2ccccc2c1=O [compound 151]
- EC50: 10 to 25 µM
- Emax: > 100%

SMILES: COc1ccc(S(=O)(=O)N2CCN(C(C)c3nc(OCCN(C)C)c4ccccc4n3)CC2)cc1 (centres unmarked) [compound 301]
- EC50: 25 to 60 µM
- Emax: 25 to 100%

SMILES: COc1ccc(S(=O)(=O)N2CCN(C(C)c3nc(NC4CCCC4)c4ccccc4n3)CC2)cc1 (centres unmarked) [compound 303]
- EC50: < 10 µM
- Emax: > 100%

SMILES: COc1ccc(S(=O)(=O)N2CCN(C(C)c3nc(N4CCC5(CC4)OCCCO5)c4ccccc4n3)CC2)cc1 (centres unmarked) [compound 328]
- EC50: 10 to 25 µM
- Emax: > 100%

SMILES: COc1ccc(S(=O)(=O)N2CCN(C(C)c3nc(NCc4ccccc4)c4ccccc4n3)CC2)cc1 (centres unmarked) [compound 367]
- EC50: < 10 µM
- Emax: 25 to 100%

SMILES: COc1ccc(S(=O)(=O)N2CCN(C(C)c3nc4cc(Cl)ccc4c(=O)n3C)CC2)cc1OC (centres unmarked) [compound 100]
- EC50: 10 to 25 µM
- Emax: 25 to 100%

SMILES: C=Cc1ccc(S(=O)(=O)N2CCN(C(C)c3nc4ccccc4c(=O)n3C)CC2)cc1 (centres unmarked) [compound 244]
- EC50: 25 to 60 µM
- Emax: 25 to 100%

SMILES: CC(c1nc2ccccc2c(=O)n1C)N1CCN(S(=O)(=O)c2ccc(Cl)c3nonc23)CC1 (centres unmarked) [compound 271]
- EC50: 25 to 60 µM
- Emax: < 25%

SMILES: CC(c1nc2ccccc2c(=O)n1C)N(CCCNS(=O)(=O)c1ccc(Cl)cc1)S(=O)(=O)c1ccc(Cl)cc1 (centres unmarked) [compound 206]
- EC50: 25 to 60 µM
- Emax: < 25%

SMILES: CC(NCCN(C)S(=O)(=O)c1ccc(Br)cc1)c1nc2ccccc2c(=O)n1C (centres unmarked) [compound 213]
- EC50: 25 to 60 µM
- Emax: < 25%

SMILES: COc1ccc(S(=O)(=O)N2CCN(C(C)c3nc4cc(OC)c(OC)cc4c(=O)n3C)CC2)cc1 (centres unmarked) [compound 285]
- EC50: 25 to 60 µM
- Emax: 25 to 100%

SMILES: COc1ccc(S(=O)(=O)N2CCN(C(C)c3nc4ccc(Br)cc4c(=O)n3C)CC2)cc1 (centres unmarked) [compound 116]
- EC50: < 10 µM
- Emax: 25 to 100%

SMILES: CC(c1nc2ccc(S(C)(=O)=O)cc2c(=O)n1C)N1CCN(S(=O)(=O)c2ccc(Br)cc2)CC1 (centres unmarked) [compound 142]
- EC50: 10 to 25 µM
- Emax: 25 to 100%

SMILES: COc1ccc(S(=O)(=O)N2CCN(C(C)c3nc(OCC4(C)COCOC4)c4ccccc4n3)CC2)cc1 (centres unmarked) [compound 296]
- EC50: 10 to 25 µM
- Emax: > 100%

SMILES: COc1ccc(S(=O)(=O)NC2CCN(C(C)c3nc4ccccc4c(=O)n3C)CC2)cc1 (centres unmarked) [compound 164]
- EC50: 25 to 60 µM
- Emax: 25 to 100%

SMILES: CC(NCCCNS(=O)(=O)c1ccc(Br)cc1)c1nc2ccccc2c(=O)n1C (centres unmarked) [compound 174]
- EC50: 25 to 60 µM
- Emax: 25 to 100%

SMILES: CC(c1nc2ccccc2c(=O)n1C)N1CCN(S(=O)(=O)c2ccc(Cl)cc2)CC1 (centres unmarked) [compound 9]
- EC50: 10 to 25 µM
- Emax: > 100%

SMILES: COC(=O)c1sccc1S(=O)(=O)N1CCN(C(C)c2nc3ccccc3c(=O)n2C)CC1 (centres unmarked) [compound 256]
- EC50: 25 to 60 µM
- Emax: < 25%

SMILES: CC(c1nc2ccccc2c(=O)n1C)N1CCN(S(=O)(=O)c2cccc3cnccc23)CC1 (centres unmarked) [compound 251]
- EC50: 25 to 60 µM
- Emax: < 25%

SMILES: CC(c1nc2ccccc2c(=O)n1C)N1CCC(NS(=O)(=O)c2ccc(Br)cc2)CC1 (centres unmarked) [compound 166]
- EC50: < 10 µM
- Emax: 25 to 100%

SMILES: CC(c1nc2ccccc2c(=O)n1C)N1CCN(S(=O)(=O)c2ccc(Cl)s2)CC1 (centres unmarked) [compound 260]
- EC50: 10 to 25 µM
- Emax: 25 to 100%

SMILES: COc1cc2nc(C(C)N3CCN(S(=O)(=O)c4ccc(C)cc4)CC3)n(C)c(=O)c2cc1OC (centres unmarked) [compound 286]
- EC50: 25 to 60 µM
- Emax: 25 to 100%

SMILES: COc1ccc(C(=O)N2CCN(C(C)c3nc4ccc(Cl)cc4c(=O)n3C)CC2)cc1OC (centres unmarked) [compound 77]
- EC50: 25 to 60 µM
- Emax: < 25%

SMILES: CCCCC(=O)N1CCN(C(C)c2nc3ccc(Cl)cc3c(=O)n2C)CC1 (centres unmarked) [compound 16]
- EC50: 25 to 60 µM
- Emax: < 25%

SMILES: COc1ccc(S(=O)(=O)NCCNC(C)c2nc3ccccc3c(=O)n2C)cc1 (centres unmarked) [compound 167]
- EC50: 25 to 60 µM
- Emax: < 25%

SMILES: CC(c1nc2ccc(Br)cc2c(=O)n1C)N1CCN(S(=O)(=O)c2ccc(Br)cc2)CC1 (centres unmarked) [compound 118]
- EC50: < 10 µM
- Emax: 25 to 100%

SMILES: COc1ccc(S(=O)(=O)N2CCN(C(C)c3nc(N4CCCC4C)c4ccccc4n3)CC2)cc1 (centres unmarked) [compound 325]
- EC50: < 10 µM
- Emax: > 100%

SMILES: CC(c1nc2cccc(Cl)c2c(=O)n1C)N1CCN(S(=O)(=O)c2ccc(Br)cc2)CC1 (centres unmarked) [compound 105]
- EC50: 10 to 25 µM
- Emax: 25 to 100%

SMILES: CC(NCCNS(=O)(=O)c1ccc(Br)cc1)c1nc2ccccc2c(=O)n1C (centres unmarked) [compound 169]
- EC50: 25 to 60 µM
- Emax: 25 to 100%

SMILES: CC(c1nc2ccc(S(C)(=O)=O)cc2c(=O)n1C)N1CCN(S(=O)(=O)c2ccc(Cl)cc2)CC1 (centres unmarked) [compound 141]
- EC50: 10 to 25 µM
- Emax: 25 to 100%

SMILES: Cc1noc(C)c1S(=O)(=O)N1CCN(C(C)c2nc3ccccc3c(=O)n2C)CC1 (centres unmarked) [compound 266]
- EC50: 25 to 60 µM
- Emax: < 25%

SMILES: COC(=O)c1ccccc1S(=O)(=O)N1CCN(C(C)c2nc3ccccc3c(=O)n2C)CC1 (centres unmarked) [compound 245]
- EC50: 25 to 60 µM
- Emax: < 25%

SMILES: COc1ccc(S(=O)(=O)N2CCN(C(C)c3nc(N4CCC5(CC4)OCCO5)c4ccccc4n3)CC2)cc1 (centres unmarked) [compound 323]
- EC50: 10 to 25 µM
- Emax: 25 to 100%

SMILES: CC(C)Oc1nc(C(C)N2CCN(S(=O)(=O)c3ccc(Br)cc3)CC2)nc2ccccc12 (centres unmarked) [compound 217]
- EC50: < 10 µM
- Emax: > 100%

SMILES: CC(c1nc2cc(Cl)ccc2c(=O)n1C)N1CCNCC1 (centres unmarked) [compound 90]
- EC50: 25 to 60 µM
- Emax: < 25%

SMILES: COc1ccc(S(=O)(=O)N2CCN(C(C)c3nc(N4CCC(C(N)=O)CC4)c4ccccc4n3)CC2)cc1 (centres unmarked) [compound 364]
- EC50: 25 to 60 µM
- Emax: 25 to 100%

SMILES: CCC(c1nc2ccccc2c(=O)[nH]1)N1CCN(S(=O)(=O)c2ccc(OC)cc2)CC1 (centres unmarked) [compound 334]
- EC50: 25 to 60 µM
- Emax: 25 to 100%

SMILES: CCC(c1nc2ccccc2c(=O)n1CC)N1CCN(S(=O)(=O)c2ccc(OC)cc2)CC1 (centres unmarked) [compound 338]
- EC50: < 10 µM
- Emax: > 100%

SMILES: COc1ccc(S(=O)(=O)N2CCN(C(C)c3nc4cc(Cl)ccc4c(=O)n3C)CC2)cc1 (centres unmarked) [compound 93]
- EC50: < 10 µM
- Emax: 25 to 100%

SMILES: COc1ccc2nc(C(C)N3CCN(S(=O)(=O)c4ccc(Cl)cc4)CC3)n(C)c(=O)c2c1 (centres unmarked) [compound 136]
- EC50: < 10 µM
- Emax: > 100%

SMILES: COc1ccc(S(=O)(=O)N2CCN(C(C)c3nc(N4CCCc5ccccc54)c4ccccc4n3)CC2)cc1 (centres unmarked) [compound 388]
- EC50: < 10 µM
- Emax: > 100%

Reference: patent US8642609B2, “Modulators of ATP-binding cassette transporters” (Vertex Pharmaceuticals Incorporated, priority 2003, dated 2014)
